In PubChem BioAssay AID330 (DTP/NCI, 2004) one finds T/C data, which are given here for 25 compounds.

Structures are written as SMILES. Where “and” joins values, the source holds several entries; their conditions need not be identical. Equal values may be shown once. Toxic doses and inconclusive results are not listed.

The assay concerns P388 leukemia ip, CD2F1 mice, survival T/C. The assay is described as follows: NCI In Vivo Anticancer Drug Screen. Data for tumor model P388 Leukemia (intraperitoneal) in CD2F1 (CDF1) mice. As to conditions: endpoint: median survival time, higher = longer survival. In outline:
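Mice carrying the transplanted tumor received test compound or vehicle. Survival was recorded in each group, and the value is the treated-group measurement divided by that of the vehicle-treated control group.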

The mark [1] stands for this setting: dose: 50.0 mg/kg/injection, schedule: Q01DX009 (ip), vehicle: Klucel (hydroxypropylcellulose) (HPC).
The mark [2] stands for this setting: dose: 100.0 mg/kg/injection, schedule: Q01DX009 (ip), vehicle: Klucel (hydroxypropylcellulose) (HPC).
[3] abbreviates: dose: 50.0 mg/kg/injection, schedule: Q01DX005 (ip), vehicle: saline with Tween-80.
Setting [4] is: dose: 100.0 mg/kg/injection, schedule: Q01DX005 (ip), vehicle: saline with Tween-80.
[5] abbreviates: dose: 200.0 mg/kg/injection, schedule: Q01DX005 (ip), vehicle: saline with Tween-80.
The mark [6] stands for this setting: dose: 100.0 mg/kg/injection, schedule: Q01DX001 (ip), vehicle: Klucel (hydroxypropylcellulose) (HPC).
The mark [7] stands for this setting: dose: 50.0 mg/kg/injection, schedule: Q01DX009 (ip), vehicle: saline with Tween-80.
The mark [8] stands for this setting: dose: 100.0 mg/kg/injection, schedule: Q01DX009 (ip), vehicle: saline with Tween-80.
Setting [9] is: dose: 200.0 mg/kg/injection, schedule: Q01DX009 (ip), vehicle: saline with Tween-80.
The mark [10] stands for this setting: dose: 60.0 mg/kg/injection, schedule: Q01DX005 (ip), vehicle: Klucel (hydroxypropylcellulose) (HPC).
The mark [11] stands for this setting: dose: 240.0 mg/kg/injection, schedule: Q01DX005 (ip), vehicle: Klucel (hydroxypropylcellulose) (HPC).
Where [12] appears, read: dose: 200.0 mg/kg/injection, schedule: Q01DX009 (ip), vehicle: Klucel (hydroxypropylcellulose) (HPC).
Where [13] appears, read: dose: 60.0 mg/kg/injection, schedule: Q01DX005 (ip), vehicle: saline with Tween-80.
The mark [14] stands for this setting: dose: 50.0 mg/kg/injection, schedule: Q01DX005 (ip), vehicle: Klucel (hydroxypropylcellulose) (HPC).
Setting [15] is: dose: 100.0 mg/kg/injection, schedule: Q01DX005 (ip), vehicle: Klucel (hydroxypropylcellulose) (HPC).
The mark [16] stands for this setting: dose: 200.0 mg/kg/injection, schedule: Q01DX005 (ip), vehicle: Klucel (hydroxypropylcellulose) (HPC).

As for `O=C1C(c2ccccc2)=C(c2ccccc2)/C1=C\c1ccc(Cl)cc1Cl`, the T/C reads like this: under setting [1], 87 % of control; under setting [2], 87 % of control.

Turning to `CCC(=O)N(C)C(C)C(=O)OC1CC(=O)N(C)c2cc(cc(OC)c2Cl)CC(CO)=C/C=C/C(OC)C2(O)CC(OC(=O)N2)C(C)C2OC12C` (stereo unspecified), the T/C (dose: 50.0 micrograms/kg/injection, schedule: Q01DX009 (ip), vehicle: saline + alcohol) was 124 % of control; the T/C (dose: 100.0 micrograms/kg/injection, schedule: Q01DX009 (ip), vehicle: saline + alcohol) is 158 % of control; the T/C (dose: 400.0 micrograms/kg/injection, schedule: Q01DX009 (ip), vehicle: saline + alcohol) was 150 % of control and 158 % of control; the T/C (dose: 800.0 micrograms/kg/injection, schedule: Q01DX009 (ip), vehicle: saline + alcohol) was 155 % of control.

For `CCN(CC)c1c(C)c(-c2ccccc2)oc(=O)c1Cl`, the T/C is 100 % of control under setting [3], 100 % of control under setting [4] and 115 % of control under setting [5].

For the compound `O=[N+]([O-])c1cccc(N/N=C\c2c(Cl)[nH]c3ccccc23)c1`, the T/C (dose: 12.5 mg/kg/injection, schedule: Q01DX001 (ip), vehicle: Klucel (hydroxypropylcellulose) (HPC)) is 102 % of control; the T/C (dose: 25.0 mg/kg/injection, schedule: Q01DX001 (ip), vehicle: Klucel (hydroxypropylcellulose) (HPC)) was 93 % of control; the T/C (dose: 50.0 mg/kg/injection, schedule: Q01DX001 (ip), vehicle: Klucel (hydroxypropylcellulose) (HPC)) is 89 % of control; the T/C under setting [6] was 86 % of control.

`CC(=O)OC(C)N(C(C)=O)c1ncc([N+](=O)[O-])s1` (stereo unspecified): the T/C (dose: 25.0 mg/kg/injection, schedule: Q01DX009 (ip), vehicle: saline with Tween-80) is 100 % of control; the T/C under setting [7] is 101 % of control; the T/C under setting [8] was 106 % of control; the T/C under setting [9] was 110 % of control.

On to `CC(=O)c1c(C)n(-c2ccccc2)c2c1[nH]c1ccccc12`, for which the T/C (dose: 3.75 mg/kg/injection, schedule: Q01DX005 (ip), vehicle: Klucel (hydroxypropylcellulose) (HPC)) was 94 % of control; the T/C (dose: 7.5 mg/kg/injection, schedule: Q01DX005 (ip), vehicle: Klucel (hydroxypropylcellulose) (HPC)) was 92 % of control; the T/C (dose: 15.0 mg/kg/injection, schedule: Q01DX005 (ip), vehicle: Klucel (hydroxypropylcellulose) (HPC)) was 86 % of control and 93 % of control; the T/C under setting [10] was 93 % of control; the T/C under setting [11] was 92 % of control.

For the compound `c1ccc(C2=NC(c3ccccc3)=NS(S3=NC(c4ccccc4)=NC(c4ccccc4)=N3)=N2)cc1` (stereo unspecified), the T/C reads like this: under setting [3], 106 % of control; under setting [4], 90 % of control; under setting [5], 88 % of control.

For `CCOc1ccc(/C=C2\CCc3ccccc3C2=O)cc1`, the T/C is, setting by setting: under setting [1], 98 % of control; under setting [2], 102 % of control; under setting [12], 99 % of control.

For `CC(C)(C)N1OC2(c3ccccc3)OC3N(C(C)(C)C)OC4(c5ccccc5)OC1C2(c1ccccc1)C34c1ccccc1` (stereo unspecified), the T/C was 111 % of control under setting [13]; 87 % of control (dose: 120.0 mg/kg/injection, schedule: Q01DX005 (ip), vehicle: saline with Tween-80); 86 % of control (dose: 240.0 mg/kg/injection, schedule: Q01DX005 (ip), vehicle: saline with Tween-80).

Take `CC1=C(C(=O)NCc2ccccc2)C(c2cccc([N+](=O)[O-])c2)C(C(=O)NCc2ccccc2)=C(C)N1`: the T/C reads like this: (dose: 15.0 mg/kg/injection, schedule: Q01DX005 (ip), vehicle: saline with Tween-80) 107 % of control; (dose: 30.0 mg/kg/injection, schedule: Q01DX005 (ip), vehicle: saline with Tween-80) 90 % of control; under setting [13], 87 % of control.

As for `NC(=O)c1cc2c3ccccc3ncc2c2ccccc12`, the T/C by setting is: (dose: 100.0 mg/kg/injection, schedule: Q01DX001 (ip), vehicle: saline with Tween-80) 100 % of control; (dose: 200.0 mg/kg/injection, schedule: Q01DX001 (ip), vehicle: saline with Tween-80) 100 % of control; (dose: 400.0 mg/kg/injection, schedule: Q01DX001 (ip), vehicle: saline with Tween-80) 100 % of control.

Take `O=C1NC(=O)C2CCC12` (stereo unspecified): the T/C was 100 % of control under setting [7], 100 % of control under setting [8] and 100 % of control under setting [9].

In the case of `CNC(=O)OCc1nc(SC)n(Cc2ccccc2)c1COC(=O)NC`, the T/C was 100 % of control (dose: 12.5 mg/kg/injection, schedule: Q01DX005 (ip), vehicle: saline with Tween-80); 110 % of control (dose: 25.0 mg/kg/injection, schedule: Q01DX005 (ip), vehicle: saline with Tween-80); 110 % of control and 116 % of control under setting [3]; 106 % of control and 116 % of control under setting [4].

Regarding `O=C1CCc2ccccc2C1C(=O)CC(O)(c1ccccc1)c1ccccc1` (stereo unspecified), the T/C (dose: 12.5 mg/kg/injection, schedule: Q01DX009 (ip), vehicle: saline sonified) is 95 % of control; the T/C (dose: 25.0 mg/kg/injection, schedule: Q01DX009 (ip), vehicle: saline sonified) was 100 % of control; the T/C (dose: 50.0 mg/kg/injection, schedule: Q01DX009 (ip), vehicle: saline sonified) was 95 % of control.

On to `O=c1c2c(-c3cc(-c4ccccc4)nc4[nH]n(-c5ccccc5)c(=O)c34)cc(-c3ccccc3)nc2[nH]n1-c1ccccc1`, for which the T/C is, setting by setting: under setting [14], 96 % of control; under setting [15], 107 % of control; under setting [16], 96 % of control.

With `CCC(c1ccc(O)cc1)c1cc2c(cc1OCC(=O)OC)OCO2` (stereo unspecified), the T/C under setting [3] is 97 % of control, the T/C under setting [4] was 93 % of control and the T/C under setting [5] is 88 % of control.

`O=C1CN(CCCN2c3ccccc3Sc3ccc(C(F)(F)F)cc32)CC(=O)N1`: the T/C by setting is: under setting [3], 103 % of control; under setting [4], 100 % of control; under setting [5], 104 % of control.

Consider `CCN(CC)C(=S)Cl`, for which the T/C is, setting by setting: under setting [3], 107 % of control; under setting [4], 106 % of control; under setting [5], 101 % of control.

For the compound `Oc1cccnc1[Se]`, the T/C runs as follows: under setting [10], 112 % of control; (dose: 120.0 mg/kg/injection, schedule: Q01DX005 (ip), vehicle: Klucel (hydroxypropylcellulose) (HPC)) 106 % of control; under setting [11], 110 % of control.

On to `Nc1c[nH]ccc1=O`, for which the T/C was 102 % of control (dose: 100.0 mg/kg/injection, schedule: Q01DX009 (ip), vehicle: saline); 100 % of control (dose: 200.0 mg/kg/injection, schedule: Q01DX009 (ip), vehicle: saline); 99 % of control (dose: 400.0 mg/kg/injection, schedule: Q01DX009 (ip), vehicle: saline).

Turning to `Nc1ccc(CNC(=O)COc2cccc(Cl)c2)cc1`, the T/C (dose: 100.0 mg/kg/injection, schedule: Q04DX002 (ip), vehicle: Klucel (hydroxypropylcellulose) (HPC)) was 102 % of control; the T/C (dose: 200.0 mg/kg/injection, schedule: Q04DX002 (ip), vehicle: Klucel (hydroxypropylcellulose) (HPC)) is 108 % of control; the T/C (dose: 400.0 mg/kg/injection, schedule: Q04DX002 (ip), vehicle: Klucel (hydroxypropylcellulose) (HPC)) was 96 % of control.

`Cc1ccc(S(=O)(=O)NN=C2C3CCC2CC3)cc1`: the T/C runs as follows: under setting [7], 111 % of control; under setting [8], 108 % of control; under setting [9], 118 % of control.

On to `COC(=O)/C(C#N)=C/c1ccc(NC(C)=O)cc1`, for which the T/C was 93 % of control under setting [14], 94 % of control under setting [15] and 88 % of control under setting [16].

Turning to `Clc1cccc(N(C2=NCCS2)C2=NCCS2)c1`, the T/C is, setting by setting: (dose: 25.0 mg/kg/injection, schedule: Q01DX009 (ip), vehicle: Klucel (hydroxypropylcellulose) (HPC)) 107 % of control; under setting [1], 104 % of control; under setting [2], 107 % of control; under setting [12], 104 % of control.

As to `COc1ccc2c(c1)C13C(=O)OC4(C)OC(C)(CC41)C3C2=O` (stereo unspecified), the T/C under setting [6] is 98 % of control; the T/C (dose: 200.0 mg/kg/injection, schedule: Q01DX001 (ip), vehicle: Klucel (hydroxypropylcellulose) (HPC)) was 104 % of control; the T/C (dose: 400.0 mg/kg/injection, schedule: Q01DX001 (ip), vehicle: Klucel (hydroxypropylcellulose) (HPC)) is 95 % of control.
